Data on three compounds can be found in patent publication US6346539B1, “Treatment of skin conditions” (BTG International Limited, priority 1998, dated 2002).

One data set concerns B16F10 mouse melanoma. In words: Effects of piperine and TPA on growth of B16F10 (panel). The data set is classed as cell-based. The protocol: (§1) In order to determine the specificity of piperine, a panel of different cell types were employed to facilitate this investigation. These included melan-a, melan-c, SVK14, CSM, XB2, SC1, B16F10, IM9, CACO2, Swiss 3T3 cell lines and normal human lymphocytes. TPA (20 nM) was also tested on these cells.

Data set [1] has as its system human melanocytes. In words: Melanin production of human melanocytes cultured in petri dishes. The data set is classed as cell-based. To be noted: 5 days. The protocol: (§2) For the second protocol, subconfluent human melanocytes were subcultured in a Ø60 mm petri dishes (28 cm^2, Falcon) with RPMI 1640 basic medium supplemented with FBS (10%), CT (1 nM), bFGF (100 pM) and endothelin 1 (1 nM). The initial plating density was 10,000 cells/cm^2, with 5 ml medium per dish. Cells were incubated for 2-3 hours in 10% CO2, humidified atmosphere, at 37° C., followed by addition of piperine solution in to the dishes, making the final concentrations of 0, 1, 5, 10 and 100 μM. Cells in the above supplemented medium lacking endothelin 1 were also set up as a negative control. Three dishes were used for each treatment and the culture was maintained for 5 days before cells were harvested with trypsinisation and counted with a haemocytometer chamber. For melanin production experiment, the harvested cells were centrifuged and pelleted. After carefully removing the medium, NaOH (1 M) was used to solubilized the cell pellets and optical density read at 475 nm in a Perkin-Elmer UV spectrophotometer (model UV/VIS Lambda 2). The melanin content was calculated by using a regression equation y=0.005+0.005× corresponding to the calibration curve for synthetic melanin.

The test system of data set [2] is human melanocytes. The data set can be described thus: Proliferation of human melanocytes cultured in petri dishes, haemocytometer count. It counts as cell-based. The procedure: as §2
Another data set deals with Melan-a. The data set can be described thus: Effects of piperine and TPA on growth of Melan-a (panel of cell types). It counts as cell-based, mouse. To be noted: piperine 0.1 and 1 μM (FIG. 4). The protocol:
(§3) Cells of mouse melan-a cell line (passage number 18-24), a first known line of non-tumorigenic pigmented mouse melanocytes were maintained in a flask (Costar, Cambridge, Mass., USA) using RPMI 1640 (ICN, Costa, Mesa, Calif., USA) as a basic medium. For microplate proliferation assays, subconfluent melan-a cultures were trypsinized (0.25% trypsin at 37° C. for 5-10 min) and inoculated with a repeater-pipettor (Finn pipette, Labsystems, Finland) into 96-well microtiter plates (Costar, Cambridge, Mass., USA). The plates were incubated at 37° C. in a 10% CO2, 90% air humidified atmosphere for the stated length of time. At the end of the incubation, an SRB assay was performed. Briefly, cells attached to the bottom of the plate were fixed by addition of cold trichloroacetic acid (TCA, 4° C., Aldrich, Dorset, UK) on the top of the growth medium (final TCA 20% w/v). The plate was placed at 4° C. for 1 hour before being gently washed five times with tap water. It was allowed to dry in air, or aided with a hair dryer to speed up the drying process, then 50 μl of 4% w/v SRB dissolved in 1% acetic acid in water was added to each well for 30 min. […] The plate was shaken for 15 min on a gyratory shaker followed by reading the optical density (OD) at 550 nm in a microplate spectrophotometer (Anthos Labtec HT3, version 1.06). […]

Another data set relates to FM21E human melanocytes. The data set can be described thus: Effects of piperine and TPA on growth of human melanocytes, 24-well plate, SRB assay. The data set is classed as cell-based. The protocol: as §1
For the first protocol, subconfluent human melanocytes maintained in a Ø100 mm petri dish were subcultured into two 24-well plates (Falcon) using basic culture medium of RPMI 1640 supplemented with FBS (10%), bFGF (100 pM), CT (1 nM) and endothelin 1 (1 nM). The initial plating density was 20,000 cells/cm^2 (38,200 cells/well) with each well containing 1000 μl medium. After incubation in a 10% CO2, humidified atmosphere, at 37° C. for 2-3 hours to allow the attachment of the cells, piperine in 500 μl medium was added into wells to made up final concentrations of 0, 1, 5, 10 and 100 μM. Cells only in the medium with above supplement lacking of endothelin 1 were also set up as negative control. Six replicates were used in each group of treatment, and culture was incubated for 5 days before the cells were harvested by fixing with cold TCA (final concentration 20%) and processed with SRB assay. The solubilized SRB dye solution was transferred to a 96-well plate for optical density reading.
(In general: In SRB staining, fixed cells bind dye roughly in proportion to their protein.)

Another data set concerns FM21E Melanoblast. In words: Effects of piperine and TPA on growth of human melanoblasts, SRB assay. It counts as cell-based. The procedure: as §1
Human melanoblasts in culture in this experiment were established from human foetal skin. Subconfluent melanoblasts maintained in MCDB 153 medium supplemented with 10% FBS, 10 ng/ml stem cell factor (SCF) and 1 nM endothelin 3 were subcultured and inoculated into 96-well microplate with 6×10^3 cells/100 μl/well. After incubation in the 10% CO2, humidified atmosphere, at 37° C. for 3-4 hours to allow the attachment of the cells on the plate, piperine dissolved in MeOH and water was added into the wells. The final concentrations of piperine were 1, 5, 10, 100 μM, with TPA (20 nM) as positive control. Six replicates were used in each group of treatment, with 12 wells used for vehicle control. The incubation was conducted for 5 days before cells were harvested by fixing with cold trichloroacetic acid (TCA, at 4° C., final concentration 20% v/v), and evaluated for cell number using an SRB assay. […] Growth in the presence of piperine and TPA was expressed as % of control incubations containing no piperine or TPA. […]

The test system of data set [3] is melan-a cells. In words: Proliferation of melan-a cells counted with haemocytometer. Also noted: unit not given here. To be noted: 20 nM TPA; 4 days. The data set is classed as cell-based, mouse. The procedure:
Melan-a cells were plated in petri dishes (Ø35 mm, Nunclon, Denmark) with a plating density of 2×10^4/ml and Piper nigrum extract at concentrations of 0.01 and 0.1 mg/ml. A negative control (cells in medium only) and positive TPA (20 nM) control were also set up. After 4 days the cells in each dish were harvested and counted with haemocytometer.

In data set [4] the test system is melan-a cells. In words: Effect of RO-31-8220 on growth of melan-a cells with piperine and TPA, SRB assay. The data set is classed as cell-based, mouse. The note with it: 4 days. The protocol: as §3

Marks after values point to notes of the source that are not given here.

Regarding `O=C(/C=C/C=C/c1ccc2c(c1)OCO2)N1CCCCC1` [Piperine, (E,E)-1-[5-(1,3-benzodioxol-5-yl)-1-oxo-2,4-pentadienyl]piperidine], the “effect on B16 mouse melanoma cell line” value in the data set on B16F10 mouse melanoma is reported as “inhibitory effects”. Further, the “Melanin content/10^4 cells” value was determined as 0.42 ± 0.03 μg with human melanocytes [1] (ET1 (1 nM) + piperine (1 μM)), 0.334 ± 0.01 μg in the data set with human melanocytes [1] (ET1 (1 nM) + piperine (5 μM)), 0.41 ± 0.07 μg in the data set on human melanocytes [1] (ET1 (1 nM) + piperine (10 μM)) and 0.46 ± 0.001 μg in the data set on human melanocytes [1] (ET1 (1 nM) + piperine (100 μM)). In the data set with human melanocytes [1] (ET1 (1 nM) + piperine (1 μM)), the “OD reading ± SD at 475 nm” value is given as 0.134 ± 0.014. In addition, the “cell number relative to ET1 (1 nM) control” value in the data set with human melanocytes [2] (5 μM piperine for 5 days, petri dishes) was “over twice as many”. Moreover, the “Cell no. (×10^−4) ± SD after cultured for 5 days” value is listed as 60.83 ± 16.78 ×10^−4 in the data set with human melanocytes [2] (ET1 (1 nM) + piperine (1 μM)), 78.96 ± 5.63 ×10^−4 in the data set on human melanocytes [2] (ET1 (1 nM) + piperine (5 μM)), 64.79 ± 13.47 ×10^−4 in the data set with human melanocytes [2] (ET1 (1 nM) + piperine (10 μM)) and 61.04 ± 10.04 ×10^−4 in the data set with human melanocytes [2] (ET1 (1 nM) + piperine (100 μM)). The activity at 1 µM in the data set on human melanocytes [2] (Homo sapiens, Melanocyte, 120 h, ET1 (1 nM) + piperine (1 μM), 5 days, read-out: % of control (ET1 1 nM)) was found to be 169%. For the same compound, the activity at 5 µM in the data set with human melanocytes [2] (Homo sapiens, Melanocyte, 120 h, ET1 (1 nM) + piperine (5 μM), 5 days, read-out: % of control (ET1 1 nM)) came out at 219%. In addition, the activity at 10 µM in the data set on human melanocytes [2] (Homo sapiens, Melanocyte, 120 h, ET1 (1 nM) + piperine (10 μM), 5 days, read-out: % of control (ET1 1 nM)) is 180%. Also, the activity at 100 µM in the data set on human melanocytes [2] (Homo sapiens, Melanocyte, 120 h, ET1 (1 nM) + piperine (100 μM), 5 days, read-out: % of control (ET1 1 nM)) was found to be 169%. For the same compound, the “effect on melan-a proliferation” value in the data set on Melan-a is “significantly stimulated melan-a proliferation”. In the data set with FM21E human melanocytes (10 μM piperine for 5 days, 24-well plate, ET1 1 nM), this compound returned a more cells yielded of 36%. For the same compound, in the data set on FM21E human melanocytes (piperine 100 μM, 24-well plate), the “effect on the growth of human melanocytes” value is given as “inhibitory effect”. Further, the “more cell yield compared to vehicle control” value in the data set with FM21E Melanoblast (100 μM piperine for 5 days) came to 34%.
Regarding “tetradecanoyl phorbol acetate [TPA, reference compound]”, the cell number in the data set with melan-a cells [3] was 5.0*. Moreover, in the data set on FM21E human melanocytes (TPA 20 nM in the presence of 1 nM endothelin 1), the “effect on the growth of human melanocytes” value is “not able to stimulate cell growth”. Also, the “more cell yield compared to vehicle control” value with FM21E Melanoblast (TPA 20 nM for 5 days) is “over 50%”.
On to `Cn1cc(C2=C(c3cn(CCCSC(=N)N)c4ccccc34)C(=O)NC2=O)c2ccccc21` [RO-31-8220], for which the “effect of RO-31-8220 on the proliferant effects of piperine and TPA on melan-a cells” value with melan-a cells [4] (RO-31-8220 0.1-100 nM, piperine 1 μM, TPA 20 nM) is on record as “effectively inhibited”. Further, the “cytotoxic effect of RO-31-8220 alone on melan-a cells” value in the data set on melan-a cells [4] (concentrations up to 100 nM) is reported as “did not have significant cytotoxic effect”.
